Data reported in ChEMBL document CHEMBL1124906, “5'-O-phosphonomethyl-2',3'-dideoxynucleosides: synthesis and anti-HIV activity” (J Med Chem, 1990).

Assays:
[1] = tested on: MT4; assay: Cytotoxic concentration required to reduce the viability of normal uninfected MT-4 cells by 50%; assay type: functional, Homo sapiens
[2] = tested on: MT4; assay: Effective concentration achieving 50% protection of MT-4 cells against the cytopathic effect of HIV-1; assay type: functional, cell-based, Homo sapiens
[3] = Selectivity index is the ratio of CC50 to EC50; assay type: functional
[4] = target: Human immunodeficiency virus type 1 reverse transcriptase (Human immunodeficiency virus 1, UniProt Q72547); assay: Compound was evaluated for the 50% inhibitory concentration on human immunodeficiency virus associated reverse transcriptase

Compound | CC50 ([1]; Homo sapiens, MT4) [µM] | EC50 ([2]; Homo sapiens, MT4) [µM] | SI [3] | CC50 [1] [µM] | EC50 ([2]; mt4) [µM] | IC50 [4] [µM]
Cc1cn([C@H]2C[C@H](N=[N+]=[N-])[C@@H](CO)O2)c(=O)[nH]c1=O [ZIDOVUDINE] | 4.8 | 0.003 | 1600 | – | – | –
Cc1cn([C@H]2C[C@H](N)[C@@H](COCP(=O)(O)O)O2)c(=O)[nH]c1=O | > 500 | > 500 | > 1 | – | – | –
Cc1cn([C@H]2C[C@H](F)[C@@H](CO)O2)c(=O)[nH]c1=O [ALOVUDINE] | – | 0.001 | 197 | – | – | –
Cc1cn([C@H]2C[C@H](N=[N+]=[N-])[C@@H](COCP(=O)(O)OP(=O)(O)OP(=O)(O)O)O2)c(=O)[nH]c1=O | 0.023 | 1.15 | – | – | – | –
Cc1cn([C@H]2C[C@H](N=[N+]=[N-])[C@@H](COCP(=O)(O)O)O2)c(=O)[nH]c1=O | 161 | 1.28 | 125 | – | – | –
Cc1cn([C@H]2C[C@H](F)[C@@H](COCP(=O)(O)OP(=O)(O)OP(=O)(O)O)O2)c(=O)[nH]c1=O (stereo in doubt; 30) | – | – | > 5 | > 500 | 100 | –
Cc1cn([C@H]2CC[C@@H](COCP(=O)(O)O)O2)c(=O)[nH]c1=O | > 500 | 500 | > 1 | – | – | –
CCOP(=O)(O)COC[C@@H]1CC[C@H](N2CCC(=N)NC2=O)O1 | > 500 | > 500 | – | – | – | –
O=c1ccn([C@H]2CC[C@@H](COCP(=O)(O)O)O2)c(=O)[nH]1 | > 500 | 90 | > 5 | – | – | –
Nc1ccn([C@H]2CC[C@@H](COCP(=O)(O)O)O2)c(=O)n1 | > 500 | > 500 | > 1 | – | – | –
CC1CN([C@H]2C[C@H](N=[N+]=[N-])[C@@H](COCP(=O)(O)OP(=O)(O)OP(=O)(O)O)O2)C(=O)NC1=O (some centres undefined) | – | – | – | – | – | 322
Cc1cn([C@H]2C[C@H](F)[C@@H](COCP(=O)(O)O)O2)c(=O)[nH]c1=O | 17.3 | 0.9 | 19 | – | – | –
CO[C@H]1C[C@H](n2cc(C)c(=O)[nH]c2=O)O[C@@H]1COCP(=O)(O)O | > 500 | 500 | > 1 | – | – | –
